From a melting point compilation (Tetko et al.; mined from patent text by program, amines drawn as free bases though some values may be those of a salt)

Structure (SMILES)	melting point
C(=CCN(c1ccccc1)c1ccccc1)CN(c1ccccc1)c1ccccc1	105 to 107 °C
CCc1nc2c(NC(=O)c3ccccc3)nc3ccccc3c2n1CCCCNS(C)(=O)=O	249 to 250 °C
COc1cc(C(=O)c2ncc3c(OC)cccn23)ccc1N	229 °C
Cc1[nH]c2ccccc2c1CSCCN1CC=C(c2ccccc2)CC1	182 °C
Cc1cc2c(cn1)c(C#N)c(-c1ncc(S(=O)(=O)NC(C)C)cn1)n2C1CCC1	242 to 243 °C
Cc1cc(N)c(C(=O)OC(C)C)cc1Oc1ccc(OC(F)(F)F)cc1	71 to 72 °C
CCCCCCNC(=O)Oc1ccc(Oc2ccccc2)cc1	57 to 59 °C
CC(C)(C)c1cc2oc(-c3ccc(S(N)(=O)=O)cc3)c(-c3ccc(F)cc3)n2n1	196 to 200 °C
Cn1nc(-c2c(Cl)cccc2Cl)nc1-c1cccnc1Cl	133 to 136 °C
CCCn1cnc2c1c(=O)n(CCCCCCO)c(=O)n2C	68 to 70 °C
FC(F)(F)c1snc(-c2c(Cl)cc(Cl)c3nc(C4CC4)oc23)c1Cl	110 to 111 °C
N#Cc1nc(N)c(Cl)nc1C#N	205 to 208 °C
COC(=O)c1cc(C)cc(-c2cccs2)c1NS(=O)(=O)c1ccc(OC)cc1	141 °C
Cc1ccc(-c2c(C(=O)O)oc(=O)c3cnccc23)cc1	254 to 256 °C
Cn1cc(C(N)=O)c(=O)c2ccc(F)cc21	317 to 318 °C
CC(C)(C)OC(=O)NCC(Cl)c1ccccc1 (stereo not drawn)	57 to 59 °C
CC(=O)c1cn(Cc2ccc(F)cc2)c2ccccc2c1=O	185 to 187 °C
Nc1n[nH]c(NC(=O)c2ccc3ccccc3c2)n1	192 to 194 °C
COc1cccc(C2C(CO)CC(=O)N2c2ccccc2)c1 (stereo not drawn)	123 to 126 °C
Cc1nc(N)nc(N)c1-c1cc(Cl)cc(Cl)c1Cl	236 to 238 °C
COc1ccc(-c2coc3ccc(C(=O)NNC(C)=O)cc23)cc1	219 to 220 °C
CN(C)C=C1CCc2cnccc2C1=O	76 to 79 °C
CCCCCCCC(=O)NC(=O)OCc1nc(C(C)C)c(Sc2cc(Cl)cc(Cl)c2)n1Cc1ccncc1	139 to 141 °C
CCOC(=O)N(C)N1CCc2ccccc2C(Oc2ccc(C(F)(F)F)cc2)C1 (stereo not drawn)	204 to 205 °C
O=C(CCCCCBr)c1cc2c3c(c1)CCC(=O)N3CCC2	52 to 53 °C

Structure (SMILES)	melting point
Cc1nnc(-c2ccc3occ(-c4ccc(C(=O)O)cc4)c3c2)o1	> 300 °C
CC(=O)SCC(Cc1ccccc1)C(=O)NC(C)(C)C(=O)OCc1ccccc1 (stereo not drawn)	83 to 85 °C
CC(C)(C)c1noc(-c2ncn3c2[C@@H]2CCCN2C(=O)c2c(Cl)cccc2-3)n1	222 to 224 °C
O=C([C@H]1CC[C@H](Nc2nccc(-n3ncc4ccccc43)n2)CC1)N1CCOCC1	191 to 192 °C
CC(=O)Nc1ccc(O[C@@H]2CNC[C@H]2O)cc1 (relative stereo)	200 °C
CCOC(=O)c1c(Cc2ccccc2)c2ccccc2[nH]c1=O	230 °C
C=CCN1C(=O)C(C)N(c2ccc(Oc3ccccc3)cc2)C1=S (stereo not drawn)	77 °C
O=C1CN(c2cccc(OCc3ccc(F)cc3)c2)NC(=O)N1	73 to 75 °C
CCCCc1nc2c(N)nc3c(c2n1CC(C)C)CCNC3	164 to 166 °C
COc1ccc(C(=O)Nc2ccc(C(=O)N3CCCC3)cc2)cc1C12CC3CC(CC(C3)C1)C2	239 to 242 °C
Cc1cccc(COc2cccc(OCc3ccc4ccccc4n3)c2)c1C(=O)O	167 to 168 °C
COc1cc(N)ccc1OC[C@H](O)C1CC1	71 °C
COc1cc(NC(=O)C2C(=O)N(C)C(=O)N(C)C2=O)ccc1O	252 to 253 °C
Cc1cc(C)nc(-n2nc(S(=O)(=O)Nc3c(F)cccc3F)nc2C)n1	228 to 230 °C
CCCCCC(=O)NS(=O)(=O)/C=C/c1cc(OCCCC)nn1Cc1ccc(Cl)cc1Cl	117 to 119 °C
Cn1cc(-c2ccc3nnc(C(F)(F)c4ccc5ncccc5c4)n3n2)cn1	200 °C
CCCN(Cc1ccc(C(=O)N(CCC)C2CCc3ncsc3C2)cc1)C1CCc2ncsc2C1 (stereo not drawn)	85 °C
CCCCCCCCS(=O)(=O)c1ccc(C#N)c(C#N)c1	70 to 71 °C
COC(=O)[C@@H]1CCN1S(=O)(=O)c1ccc(Cl)c(CBr)c1Cl	150 °C
CCC1c2cccn2-c2ccc(F)cc2N1S(=O)(=O)c1ccc(O)cc1 (stereo not drawn)	150 to 152 °C
CNc1cc(Cl)cc(N)c1[N+](=O)[O-]	129 °C
Cc1nc(Cl)cc(-c2ccc(F)cc2)n1	95 to 98 °C
Clc1cccc(C(c2ccccc2)(c2ccccc2)n2ccnc2)c1	101 °C
Nc1nc(OCCC2CCCCC2)c2[nH]cnc2n1	210 °C
O=C1CCC(N2Cc3c(CNC(=O)c4ccco4)cccc3C2=O)C(=O)N1 (stereo not drawn)	219 to 221 °C

Structure (SMILES)	melting point
CCOC(=O)C(Cl)(Cl)CCCCCCCCCCCCS(=O)(=O)c1ccccc1	69 to 71 °C
COC(=O)C(CCSC)N(C(=O)OC(C)(C)C)C(=O)c1ccc(N)c(C)c1 (stereo not drawn)	163 to 165 °C
Cc1nc2ccc3c(c2o1)OC(CN1CC=C(c2ccccc2)CC1)CO3 (stereo not drawn)	170 to 173 °C
CSC1=C(c2ccccc2)C(=O)N(Nc2ccccc2)C1=O	86 to 88 °C
COc1cc(O)c2c(c1O)C1C=CC2C1 (stereo not drawn)	151 to 153 °C
Cc1cc([N+](=O)[O-])c(NC(C)C(=O)N(C)O)c([N+](=O)[O-])c1 (stereo not drawn)	171 to 172 °C
CCCn1nc(C)c2c1C1=NC(C)CN1C(C)=N2 (stereo not drawn)	85 to 90 °C
COc1ccc2c(c1)c(C1CCN(Cc3ccc(OC)c(C(=O)O)c3)CC1)cn2CCc1ccsc1	229 to 230 °C
Cc1cc(C#N)sc1-c1ccc2c(c1)C(C)(C)OC(=O)N2	195 to 200 °C
CCCCCC(O)C#CCCCCCCC#Cc1ccc(O)c(O)c1 (stereo not drawn)	46 to 48 °C
Cc1oc(-c2ccco2)nc1COc1ccc(CCl)cc1Cl	103 to 104 °C
Clc1ccc(Cl)c(Oc2cccc(Cl)n2)c1	82 to 84 °C
CCCCc1nc2c(N)nc3ccccc3c2n1CCOCC#Cc1ccccc1	133 to 140 °C
COC=Nc1c(C#N)c(C)nn1-c1c(Cl)cc(C(F)(F)F)cc1Cl	75 to 78 °C
CCCCCC(CC(=O)Nc1cc(C(=O)O)ccc1C(C)(C)C)c1ccc(CCCC)cc1OC (stereo not drawn)	136 to 138 °C
CSc1nc(OCC2COC(C)(C)O2)c2c(-c3ccccc3Cl)n[nH]c2n1 (stereo not drawn)	120 to 122 °C
N#Cc1cc(-c2ccoc2)c2ccc(OCc3cncc(-c4ccccc4)c3)cc2c1	138 to 140 °C
C=CCc1c(OCCCSCc2nnn[nH]2)ccc(C(C)=O)c1O	129 to 132 °C
CCOC(=O)c1cccc2c1CCCC2C(N)=O (stereo not drawn)	160 to 162 °C
Cn1cc(CC(NC(=O)CCCC(=O)O)C(=O)NCCCCNC(=N)N)c2ccccc21 (stereo not drawn)	291 °C
CCCCCN1C(=O)C(c2ccc3c(c2)OCO3)c2cccnc21 (stereo not drawn)	75 to 77 °C
COc1cc(OC)c2c(=O)[nH]c(-c3ccc(CCC(=O)O)cc3)nc2c1	251 °C
O=[N+]([O-])c1ccc(-c2c(Cl)ncnc2NS(=O)(=O)c2ccc(Cl)cc2)cc1	282 to 285 °C
